Test results reported in patent publication US20090076136A1, “THERAPEUTIC AGENT” (priority 2003, published 2009).

Legend:
[1] = tested on: mature adipocytes (3T3-L1 cells); assay: Enhancing action on glucose uptake: 2-deoxyglucose uptake into mature adipocytes; type: cell-based
Method: The induction of differentiation into mature adipocytes was carried out by partially modifying the method of Rubin C. S. et al. (JBC. 253 7570-7578, 1978). 3T3-L1 cells (ATCC CCL-92.1) were suspended in a 10% calf serum (manufactured by ICN)-containing Dulbecco's modified Eagle's medium (manufactured by Sigma, D6046) containing 200 μM ascorbic acid so as to have a density of 4×10^3 cells/mL, and the suspension was put in each well of a 12-well microtiter plate in an amount of 2 mL per well. The cells were cultured at 37° C. for 7 days in the presence of 5% carbon dioxide gas. On the seventh day, the medium was exchanged with […] of a 10% fetal bovine serum (manufactured by GIBCO)-containing Dulbecco's modified Eagle's medium containing 200 μM ascorbic acid, 0.25 μM dexamethasone, 10 μg/mL insulin (manufactured by TAKARA BIO INC.) and 0.5 mM 3-isobutyl-1-methylxanthine (manufactured by Nacalai Tesque, Inc., 19624-86). After 45 hours, the medium was exchanged with 2 mL of a 10% fetal bovine serum-containing Dulbecco's modified Eagle's medium containing 200 μM ascorbic acid and 5 μg/mL insulin. The medium was exchanged on after 2 days and 5 days, and the cells were cultured for 7 days, to give mature adipocytes.
As the evaluation of enhancing action on glucose uptake, and also as the evaluation of insulin-mimetic action, the amount of 2-deoxyglucose uptake into mature adipocytes stimulated with the sample in the adipocytes was determined.
After the termination of the culture, the medium was removed, and the cells were washed twice with a 0.1% (w/v) bovine serum albumin (manufactured by Sigma, A8022)-containing Dulbecco's modified Eagle's medium. Thereafter, 1 mL of the same medium was put to each well. The cells were cultured overnight at 37° C. in the presence of 5% carbon dioxide gas. After the overnight culture, the cells were washed twice with a HEPES buffered saline (140 mM NaCl, 5 mM KCl, 2.5 mM MgSO4, 1 mM CaCl2, 20 mM HEPES-Na (pH 7.4)), and 0.9 mL of the same buffer was added thereto. The cells were cultured at 37° C. for 75 minutes. […] […] Thereafter, 100 μL of a HEPES buffered saline containing 2-deoxy-[1,2-^3H(N)]-glucose (manufactured by PerkinElmer Life Sciences Inc., NET549A) and 1 mM 2-deoxyglucose (manufactured by Nacalai Tesque, Inc., 10722-11) was added thereto at a final concentration of 0.5 μCi/mL, and the cells were further cultured at 37° C. for 10 minutes. After the termination of the culture, the supernatant was removed, the cells were washed three times with a phosphate buffer cooled to 4° C., and 0.5 mL of a 1% Nonidet P-40-containing phosphate buffer was added to lyse the cells, whereby 2-deoxy-[1,2-^3H(N)]-glucose taken into the cells was eluted. The radioactivity was determined with a liquid scintillation counter LS6500 (manufactured by Beckmann) using 25 μL of the supernatant with Ultima Gold (manufactured by PerkinElmer Life Sciences Inc., 6013329) as a scintillation cocktail.

mouse = assay: Single-dose oral toxicity in mouse; type: in vivo; conditions: 1 g/kg weight
Method: No toxicity is found even when the above-mentioned effective ingredient used in the present invention is administered in an effective dose for the exhibition of its action.

3T3-L1 cells = assay: Inducing action on differentiation into adipocytes: amount of triglyceride in the adipocytes; type: cell-based
Method: Induction of differentiation into adipocytes was carried out by partially modifying the above-mentioned method of Rubin C. S. et al. In addition, as a compound (P001), a compound prepared in Example 4 was used. 3T3-L1 cells were suspended in a 10% (w/v) calf serum-containing Dulbecco's modified Eagle's medium containing 200 μM ascorbic acid so as to have a density of 4×10^3 cells/mL, and the suspension was put in each well of a 12-well microtiter plate in an amount of 2 mL per well. The cells were cultured at 37° C. for 7 days in the presence of 5% carbon dioxide gas. On the seventh day, the medium was exchanged with a 10% fetal bovine serum-containing Dulbecco's modified Eagle's medium containing 200 μM ascorbic acid and 0.25 μM dexamethasone, and 4 μL of a 15 mM dimethyl sulfoxide solution of the compound (P001), a 5 mM dimethyl sulfoxide solution of the compound (P001), or a 1.5 mM dimethyl sulfoxide solution of the compound (P001) was added to each well. Here, there were set a group with addition of 4 μL of a 5 mg/mL aqueous solution of insulin as a positive control, and a group with addition of dimethyl sulfoxide as a negative control. After 48 hours, the medium was exchanged with a 10% fetal bovine serum-containing Dulbecco's modified Eagle's medium containing 200 μM ascorbic acid, and 4 μL of a 15 mM dimethyl sulfoxide solution of the compound (P001), a 5 mM dimethyl sulfoxide solution of the compound (P001), or a 1.5 mM dimethyl sulfoxide solution of the compound (P001), a group with addition of 2 μL of a 5 mg/mL aqueous solution of insulin as a positive control, or a group with addition of dimethyl sulfoxide as a negative control was put to each well. The cells were cultured for additional 7 days. Here, the medium was exchanged after 2 days and after 5 days, and at that time, 4 μL of a 15 mM dimethyl sulfoxide solution of the compound (P001), a 5 mM dimethyl sulfoxide solution of the compound (P001), or a 1.5 mM dimethyl sulfoxide solution of the compound (P001), a group with addition of 2 μL of a 5 mg/mL aqueous solution of insulin as a positive control, or a group with addition of dimethyl sulfoxide as a negative control was put to each well. […]
The amount of triglyceride in the adipocytes was determined as an index for inducing differentiation into mature adipocytes, and also as the evaluation of insulin-mimetic action.
After the termination of the culture, the medium was removed, and the cells were washed twice with a phosphate buffered saline. One milliliter of a solvent of hexane:isopropanol=3:2 was added to the cells. The mixture was allowed to stand at room temperature for 30 minutes, and thereafter the supernatant was collected. The procedures were repeated again, and 2 mL of the supernatant was concentrated to dryness. The precipitates were dissolved in 100 μL of isopropanol, and the amount of triglyceride contained in 10 μL of the solution was determined using a triglyceride E-test (manufactured by Wako Pure Chemical Industries, Ltd., code 432-40201). In addition, all the determinations were carried out twice.

[2] = tested on: glucose transporter (mature adipocytes); assay: Influence of cytochalasin B on 2-deoxyglucose uptake in mature adipocytes; type: cell-based; conditions: cytochalasin B 40 μM, in every group (polygodial 3 μM, insulin 1 μg/mL, negative control)
Method: Specifically, as a sample, there was set a group with addition of a dimethyl sulfoxide solution of polygodial so as to have a final concentration of 3 μM. […] Furthermore, in each group, there was set a group with addition of cytochalasin B (manufactured by Nacalai Tesque, Inc., 10435-81) so as to have a final concentration 40 μM at the same time as the time of addition of the sample and insulin. Thereafter, the amount of 2-deoxy-[1,2-^3H(N)]-glucose taken into the adipocytes was determined in the same manner.

[3] = final concentration 10 μM, 3 μM or 1 μM, FIG. 2, FIG. 3
[4] = final concentration 30 μM, 10 μM or 3 μM

## CC(=O)O[C@@H]1C[C@@H]2[C@@]3(C)CCCC(C)(C)[C@@H]3CC[C@@]2(C)[C@@H]2CC=C(C=O)[C@H](C=O)[C@@]12C [12-epi-scalaradial]
[1]; [3]
  2-deoxy-[1,2-3H(N)]-glucose uptake compared to the negative control: enhancement of 2-deoxy-[1,2-^3H(N)]-glucose uptake was found
mouse
  deaths after oral administration: no cases of deaths are found

## COC(=O)C1=C(C(=O)OC)C2(C)CCCC(C)(C)C2=CC1 (stereo not shown) [P001, dimethyl 3,5,6,7,8,8a-hexahydro-5,5,8a-trimethyl-1,2-naphthalenedicarboxylate]
mouse
  deaths after oral administration: no cases of deaths are found
3T3-L1 cells; [4]
  biosynthesis of triglyceride (index of differentiation into mature adipocytes): induction of biosynthesis of triglyceride was found

## CC1(C)CCCC2(C)C1=CCC(CO)=C2CO (stereo not shown) [P002, 3,5,6,7,8,8a-hexahydro-5,5,8a-trimethyl-1,2-naphthalenedimethanol]
mouse
  deaths after oral administration: no cases of deaths are found
3T3-L1 cells; final concentration 30 μM or 3 μM, FIG. 7
  biosynthesis of triglyceride (index of differentiation into mature adipocytes): induction of biosynthesis of triglyceride was found

## CC1(C)CCCC2(C)C1=CCC1=C2C(=O)OC1 (stereo not shown) [P003, 4,6,7,8,9,9a-hexahydro-6,6,9a-trimethyl-naphtho[1,2-c]furan-1(3H)-one]
[1]; final concentration 30 μM or 10 μM, sample added at each exchange of BSA medium or HEPES buffered saline, FIG. 23
  2-deoxy-[1,2-3H(N)]-glucose uptake compared to the negative control: enhancement of 2-deoxy-[1,2-^3H(N)]-glucose uptake was found
mouse
  deaths after oral administration: no cases of deaths are found
3T3-L1 cells; [4]
  biosynthesis of triglyceride (index of differentiation into mature adipocytes): induction of biosynthesis of triglyceride was found

## COC(=O)C1=CCC2C(C)(C)CCCC2(C)C1C(=O)OC (stereo not shown) [P004, dimethyl 1,4,4a,5,6,7,8,8a-octahydro-5,5,8a-trimethyl-1,2-naphthalenedicarboxylate]
[1]; final concentration 30 μM, 10 μM or 3 μM, FIG. 11
  2-deoxy-[1,2-3H(N)]-glucose uptake compared to the negative control: enhancement of 2-deoxy-[1,2-H(N)]-glucose uptake was found
mouse
  deaths after oral administration: no cases of deaths are found
3T3-L1 cells; final concentration 10 μM, 3 μM or 1 μM, FIG. 12
  biosynthesis of triglyceride (index of differentiation into mature adipocytes): induction of biosynthesis of triglyceride was found

## CC1(C)CCCC2(C)C(CO)C(CO)=CCC12 (stereo not shown) [P005, 1,4,4a,5,6,7,8,8a-octahydro-5,5,8a-trimethyl-1,2-naphthalenedimethanol]
mouse
  deaths after oral administration: no cases of deaths are found
3T3-L1 cells; final concentration 30 μM or 10 μM, FIG. 14
  biosynthesis of triglyceride (index of differentiation into mature adipocytes): induction of biosynthesis of triglyceride was found

## CC1(C)CCCC2(C)C3COC(=O)C3=CCC12 (stereo not shown) [P006, 5,5a,6,7,8,9,9a,9b-octahydro-6,6,9a-trimethyl-naphtho[1,2-c]furan-3(1H)-one]
mouse
  deaths after oral administration: no cases of deaths are found
3T3-L1 cells; [4]
  biosynthesis of triglyceride (index of differentiation into mature adipocytes): induction of biosynthesis of triglyceride was found

## CC(=O)OCC1=CCC2C(C)(C)CCCC2(C)C1C=O (stereo not shown) [P007, 1-[(acetyloxy)methyl]-1,4,4a,5,6,7,8,8a-octahydro-5,5,8a-trimethyl-2-naphthalenecarboxyaldehyde]
mouse
  deaths after oral administration: no cases of deaths are found
3T3-L1 cells; [4]
  biosynthesis of triglyceride (index of differentiation into mature adipocytes): induction of biosynthesis of triglyceride was found

## CC(=O)OCC1=CCC2C(C)(C)CCCC2(C)C1C=O (stereo not shown) [P008, 2-[(acetyloxy)methyl]-1,4,4a,5,6,7,8,8a-octahydro-5,5,8a-trimethyl-1-naphthalenecarboxyaldehyde]
mouse
  deaths after oral administration: no cases of deaths are found
3T3-L1 cells; final concentration 10 μM or 3 μM, FIG. 20
  biosynthesis of triglyceride (index of differentiation into mature adipocytes): induction of biosynthesis of triglyceride was found

## C=C1[C@@H](C)[C@H]2[C@H](Cc3ccccc3)NC(=O)[C@]23OC(=O)/C=C/[C@H](O)CCC[C@@H](C)C/C=C/[C@H]3[C@@H]1O [cytochalasin B, reference compound]
[2]
  2-deoxy-[1,2-3H(N)]-glucose uptake on addition of cytochalasin B: almost completely inhibited

## CC1(C)CCC[C@]2(C)[C@H](C=O)C(C=O)=CC[C@@H]12 [epipolygodial]
[1]; final concentration 3 μM, 1 μM or 0.3 μM, FIG. 25
  2-deoxy-[1,2-3H(N)]-glucose uptake compared to the negative control: enhancement of 2-deoxy-[1,2-^3H(N)]-glucose uptake was found
mouse
  deaths after oral administration: no cases of deaths are found

## CC1(C)C[C@H]2C=C(C=O)[C@]3(C=O)C[C@]3(C)[C@H]2C1 [isovelleral]
[1]; final concentration 3 μM or 1 μM, FIG. 24
  2-deoxy-[1,2-3H(N)]-glucose uptake compared to the negative control: enhancement of 2-deoxy-[1,2-^3H(N)]-glucose uptake was found
mouse
  deaths after oral administration: no cases of deaths are found

## CC1(C)CCCC2(C)C1CCC1(CO1)C2C/C=C(/C=O)CC=O (stereo not shown) [miogadial]
mouse
  deaths after oral administration: no cases of deaths are found

## O=Cc1cc2ccccc2cc1C=O [naphthalene-2,3-dicarboxyaldehyde]
[1]; [3]
  2-deoxy-[1,2-3H(N)]-glucose uptake compared to the negative control: enhancement of 2-deoxy-[1,2-^3H(N)]-glucose uptake was found
mouse
  deaths after oral administration: no cases of deaths are found
